From ChEMBL document CHEMBL1201861, “Genomics of Drug Sensitity in Cancer screening data, Wellcome Trust Sanger Institute”

Assays:
Assay in all cases: cells
[1] = system: CP50-MEL-B; format: functional, cell-based; conditions: Homo sapiens;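 also: growth inhibition of the human cell line, measured with a cell viability read-out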
[2] = system: CW-2; format: functional, cell-based, Homo sapiens; conditions: Homo sapiens, CW-2;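 also: growth inhibition of CW-2 cells, read out by a cell viability assay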
[3] = system: Calu-6; format: functional, cell-based, Homo sapiens; conditions: Homo sapiens, Calu-6;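 also: growth of human Calu-6 cells, read out by a cell viability assay, IC50 marking inhibition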
[4] = system: EW-11; format: functional, cell-based, Homo sapiens; conditions: Homo sapiens, EW-11;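 also: growth inhibition of human EW-11 cells, measured with a cell viability assay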
[5] = system: GB-1; format: functional, cell-based, Homo sapiens; conditions: Homo sapiens, GB-1;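 also: growth of GB-1 cells judged by a viability assay, IC50 marks the concentration inhibiting growth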
[6] = system: GCIY; format: functional, cell-based, Homo sapiens; conditions: Homo sapiens, GCIY;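 also: growth inhibition of the human GCIY cell line, read out by a cell viability assay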
[7] = system: GT3TKB; format: functional, cell-based, Homo sapiens; conditions: Homo sapiens, GT3TKB;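 also: growth inhibition of the cell line, read out with a cell viability assay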
[8] = system: HDLM-2; format: functional, cell-based, Homo sapiens; conditions: Homo sapiens, HDLM-2;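 also: cell viability assay measuring suppression of HDLM-2 proliferation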
[9] = system: HOP-62; format: functional, cell-based, Homo sapiens; conditions: Homo sapiens, HOP-62;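 also: cell growth inhibition determined with a viability assay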
[10] = system: HT; format: functional, cell-based, Homo sapiens; conditions: Homo sapiens, HT
[11] = system: JVM-3; format: functional, cell-based, Homo sapiens; conditions: Homo sapiens, JVM-3;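 also: growth inhibition of human JVM-3 cells, read out with a cell viability assay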
[12] = system: KARPAS-299; format: functional, cell-based, Homo sapiens; conditions: Homo sapiens, KARPAS-299
[13] = system: KINGS-1; format: functional, cell-based, Homo sapiens; conditions: Homo sapiens, KINGS-1;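 also: cell viability assay measuring suppression of KINGS-1 cell growth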
[14] = system: KNS-81-FD; format: functional, cell-based, Homo sapiens; conditions: Homo sapiens, KNS-81-FD;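 also: growth inhibition of KNS-81-FD cells, read out with a cell viability assay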
[15] = system: KY821; format: functional, cell-based, Homo sapiens; conditions: Homo sapiens, KY821;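 also: growth inhibition of human KY821 cells, read out by a cell viability assay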
[16] = system: LB1047-RCC; format: functional, cell-based, Homo sapiens; conditions: Homo sapiens, LB1047-RCC;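 also: inhibition of cell growth, determined with a cell viability assay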
[17] = system: LB2241-RCC; format: functional, cell-based, Homo sapiens; conditions: Homo sapiens, LB2241-RCC;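 also: cell viability assay measuring how strongly the cultured human renal carcinoma line is prevented from growing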
[18] = system: LB2518-MEL; format: functional, cell-based; conditions: Homo sapiens;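 also: growth inhibition of human LB2518-MEL cells, measured with a cell viability assay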
[19] = system: LC-2-ad; format: functional, cell-based, Homo sapiens; conditions: Homo sapiens, LC-2-ad;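 also: growth inhibition of human LC-2-ad cells, read out with a cell viability assay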
[20] = system: LS-123; format: functional, cell-based, Homo sapiens; conditions: Homo sapiens, LS-123
[21] = system: LU-134-A; format: functional, cell-based, Homo sapiens; conditions: Homo sapiens, LU-134-A
[22] = system: MEG-01; format: functional, cell-based, Homo sapiens; conditions: Homo sapiens, MEG-01;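 also: growth inhibition of MEG-01 cells, read out by a cell viability assay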
[23] = system: MHH-NB-11; format: functional, cell-based, Homo sapiens; conditions: Homo sapiens, MHH-NB-11;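 also: growth inhibition of human MHH-NB-11 cells, read out by a cell viability assay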
[24] = system: MHH-PREB-1; format: functional, cell-based, Homo sapiens; conditions: Homo sapiens, MHH-PREB-1;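 also: cell viability assay measuring inhibition of proliferation of human MHH-PREB-1 cells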
[25] = system: MS-1; format: functional, cell-based, Homo sapiens; conditions: Homo sapiens, MS-1;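 also: growth inhibition of MS-1 cells, read out by cell viability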
[26] = system: MV4-11; format: functional, cell-based, Homo sapiens, MV-4-11; conditions: Homo sapiens, MV4-11;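 also: cell viability readout measuring growth inhibition of human MV-4-11 cells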
[27] = system: NB6; format: functional, cell-based, Homo sapiens; conditions: Homo sapiens, NB6;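 also: growth inhibition of NB6 cells, read out by a cell viability assay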
[28] = system: NCI-H1299; format: functional, cell-based; conditions: Homo sapiens;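 also: growth inhibition of human NCI-H1299 cells, read out by a cell viability assay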
[29] = system: NCI-H1355; format: functional, cell-based, Homo sapiens; conditions: Homo sapiens, NCI-H1355;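 also: growth inhibition of human NCI-H1355 cells, read out by a cell viability assay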
[30] = system: NCI-H1395; format: functional, cell-based, Homo sapiens; conditions: Homo sapiens, NCI-H1395;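 also: cell viability assay read-out quantifying reduced proliferation of human NCI-H1395 cells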
[31] = system: NCI-H209; format: functional, cell-based, Homo sapiens; conditions: Homo sapiens, NCI-H209;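 also: growth inhibition of human NCI-H209 cells, measured by a cell viability assay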
[32] = system: NCI-H747; format: functional, cell-based, Homo sapiens; conditions: Homo sapiens, NCI-H747;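 also: growth inhibition of human NCI-H747 cells, read out by a cell viability assay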
[33] = system: NTERA-2-cl-D1; format: functional, cell-based, Homo sapiens; conditions: Homo sapiens, NTERA-2-cl-D1;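 also: inhibition of cell growth, measured with a cell viability assay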
[34] = system: OCI-AML2; format: functional, cell-based, Homo sapiens; conditions: Homo sapiens, OCI-AML2;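 also: growth inhibition of OCI-AML2 cells, read out with a cell viability assay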
[35] = system: OCUB-M; format: functional, cell-based; conditions: Homo sapiens;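 also: growth inhibition of the cancer cell line, read out through a cell viability assay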
[36] = system: OS-RC-2; format: functional, cell-based, Homo sapiens; conditions: Homo sapiens, OS-RC-2;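 also: growth inhibition of human OS-RC-2 cells, measured by a cell viability assay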
[37] = system: SK-MEL-2; format: functional, cell-based, Homo sapiens; conditions: Homo sapiens, SK-MEL-2;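 also: growth inhibition of human SK-MEL-2 cells measured with a cell viability assay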
[38] = system: SNB-75; format: functional, cell-based, Homo sapiens; conditions: Homo sapiens, SNB-75;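 also: cell viability assay measuring growth inhibition of human SNB-75 cells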
[39] = system: SW 954; format: functional, cell-based, Homo sapiens; conditions: Homo sapiens, SW 954;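 also: growth inhibition of SW954 human cancer cells, read out as cell viability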
[40] = system: 8-MG-BA; format: functional, cell-based, Homo sapiens; conditions: Homo sapiens, 8-MG-BA;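 also: growth inhibition of 8-MG-BA cells, read out with a cell viability assay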
[41] = system: A3-KAW; format: functional, cell-based, Homo sapiens; conditions: Homo sapiens, A3-KAW;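 also: growth inhibition of human A3-KAW cells, read out with a cell viability assay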
[42] = system: A4-Fuk; format: functional, cell-based, Homo sapiens; conditions: Homo sapiens, A4-Fuk;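 also: growth inhibition of A4-Fuk cells, read out by a cell viability assay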
[43] = system: AU565; format: functional, cell-based; conditions: Homo sapiens;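 also: cell viability assay measuring growth inhibition of human AU565 cells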
[44] = system: BB30-HNC; format: functional, cell-based, Homo sapiens; conditions: Homo sapiens, BB30-HNC;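 also: growth inhibition of the cultured cell line, read out by a cell viability assay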
[45] = system: BB65-RCC; format: functional, cell-based, Homo sapiens; conditions: Homo sapiens, BB65-RCC;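 also: growth inhibition of the cell line, measured with a cell viability assay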
[46] = system: BFTC-905; format: functional, cell-based; conditions: Homo sapiens
[47] = system: TE-10; format: functional, cell-based, Homo sapiens; conditions: Homo sapiens, TE-10;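 also: growth inhibition of TE-10 cells, measured by a cell viability assay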
[48] = system: TE-12; format: functional, cell-based, Homo sapiens; conditions: Homo sapiens, TE-12;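 also: growth inhibition of TE-12 cells, read out by a cell viability assay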
[49] = system: no-11; format: functional, cell-based, Homo sapiens; conditions: Homo sapiens;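 also: growth inhibition of human NO-11 cells, read out with a cell viability assay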
[50] = system: COLO-668; format: functional, cell-based, Homo sapiens; conditions: Homo sapiens, COLO-668

In the case of `C/C(=C\c1csc(C)n1)[C@@H]1C[C@@H]2O[C@]2(C)CCC[C@H](C)[C@H](O)[C@@H](C)C(=O)C(C)(C)[C@@H](O)CC(=O)O1` [PATUPILONE], the IC50 [1] is reported as 19 nM, the IC50 [2] is reported as over 32 nM and the IC50 [3] is reported as 7.14 nM. The IC50 [4] was over 32 nM, the IC50 [5] was 1.19 nM and the IC50 [6] was 6.59 nM. It also gave an IC50 [7] of 0.655 nM, an IC50 [8] of 19.5 nM and an IC50 [9] of 1.04 nM. The IC50 [10] was 20.5 nM, the IC50 [11] was over 32 nM and the IC50 [12] was over 32 nM. The IC50 [13] was over 32 nM, the IC50 [14] was over 32 nM and the IC50 [15] was over 32 nM. It also gave an IC50 [16] of 2 nM, an IC50 [17] of 5.55 nM and an IC50 [18] of 17.6 nM. The IC50 [19] was under 0.125 nM, the IC50 [20] was 0.96 nM and the IC50 [21] was 15.8 nM. The IC50 [22] was 1.53 nM, the IC50 [23] was 15.2 nM and the IC50 [24] was 7.51 nM. The IC50 [25] was 10.2 nM, the IC50 [26] was 1.7 nM and the IC50 [27] was 17.5 nM. The IC50 [28] was 0.88 nM, the IC50 [29] was 0.915 nM and the IC50 [30] was over 32 nM. For the same compound, the IC50 [31] was 20.9 nM, the IC50 [32] was 2.54 nM and the IC50 [33] was 0.718 nM. It also gave an IC50 [34] of 3.07 nM, an IC50 [35] of 1.03 nM and an IC50 [36] of 1.21 nM. The IC50 [37] was 7.19 nM, the IC50 [38] was 3.01 nM and the IC50 [39] was 0.436 nM. The IC50 [40] was 4.78 nM, the IC50 [41] was 6.06 nM and the IC50 [42] was 1.09 nM. For the same compound, the IC50 [43] was 4.1 nM, the IC50 [44] was 0.201 nM and the IC50 [45] was 0.631 nM. It also gave an IC50 [46] of 0.0499 nM, an IC50 [47] of 0.719 nM and an IC50 [48] of 5.47 nM. For the same compound, the IC50 [49] was over 32 nM and the IC50 [50] was over 32 nM.
Work on `Cc1ccc(C(=O)Nc2ccc(CN3CCN(C)CC3)c(C(F)(F)F)c2)cc1C#Cc1cnc2cccnn12` [PONATINIB] yielded an IC50 [1] of over 512 nM, an IC50 [2] of over 512 nM and an IC50 [3] of over 512 nM. For the same compound, the IC50 [4] was over 512 nM, the IC50 [5] was 125 nM and the IC50 [6] was over 512 nM. The IC50 [7] was over 512 nM, the IC50 [8] was over 512 nM and the IC50 [9] was 361 nM. For the same compound, the IC50 [10] was over 512 nM, the IC50 [11] was over 512 nM and the IC50 [12] was over 512 nM. It also gave an IC50 [13] of over 512 nM, an IC50 [14] of over 512 nM and an IC50 [15] of over 512 nM. The IC50 [16] was over 512 nM, the IC50 [17] was over 512 nM and the IC50 [18] was over 512 nM. The IC50 [19] was 243 nM, the IC50 [20] was over 512 nM and the IC50 [21] was over 512 nM. For the same compound, the IC50 [22] was under 2 nM, the IC50 [23] was over 512 nM and the IC50 [24] was over 512 nM. For the same compound, the IC50 [25] was over 512 nM, the IC50 [26] was under 2 nM and the IC50 [27] was over 512 nM. It also gave an IC50 [28] of over 512 nM, an IC50 [29] of over 512 nM and an IC50 [30] of over 512 nM. For the same compound, the IC50 [31] was over 512 nM, the IC50 [32] was 421 nM and the IC50 [33] was over 512 nM. It also gave an IC50 [34] of over 512 nM, an IC50 [35] of over 512 nM and an IC50 [36] of over 512 nM. The IC50 [37] was over 512 nM, the IC50 [38] was over 512 nM and the IC50 [39] was over 512 nM. For the same compound, the IC50 [40] was over 512 nM, the IC50 [41] was over 512 nM and the IC50 [42] was over 512 nM. The IC50 [43] was over 512 nM, the IC50 [44] was over 512 nM and the IC50 [45] was over 512 nM. The IC50 [46] was over 512 nM, the IC50 [47] was over 512 nM and the IC50 [48] was over 512 nM. It also gave an IC50 [49] of over 512 nM and an IC50 [50] of over 512 nM.
